From US10016382B2, “Method for decreasing skeletal muscle damage and/or oxidative stress in mammals” (LONZA INC., priority 2014, dated 2018)
“And” between values parts separate entries of the source, which are not always exact repeats. Equal entries are not always repeated.

Legend:
Assay type in all cases: in vivo, dog
[1] = system: Labrador Retrievers; assay: Subjective recovery score (soreness, lameness) after long runs, Example 1; conditions: Ex.1, 250 mg/d; observed 24 hr following each long run; either treatment
Description: Each test dog wore an Actical activity monitor from Philips Respironics on a collar for the short higher intensity runs and also wore an Actical activity monitor for the weekly longer endurance runs. The activity data was downloaded into spread sheets along with each dogs identity. Twenty four hours after each long run during the 13 wk running program each of the dogs were scored by kennel staff for soreness or any type of lameness The exercise program was decreased in a tapering program during wk 11 and 12 to allow the dogs to rest for the final long run completed on wk 13. Pre-run serum samples from each test dog was taken 24 hr before the last endurance run. The heart rate and basal body temperature was determined for each test dog prior to the last long endurance run. A subjective recovery score was determined 24 hours after endurance run for each test dog once per week. The subjective recovery score (1-5; score of 1 for no soreness or stiffness in limbs and a score of 5 meant major soreness and stiffness) was based on ease of movement and soreness of each dog. The same subjective system was used 6 hr after the long 15 mile run and again at 24 and 48 hr to evaluate the recovery of the dogs as far as soreness and desire to move.

[2] = system: Labrador Retrievers; assay: Time of final 15 mile run, Example 2 part one (14 week crossover study); conditions: Ex.2 part one, 250 mg/d, 15 mile run at end of 14 week study, mean ± SEM
Method: Part One: For part one of the study, fifty-six Labrador Retrievers were divided into two equal groups of 28 (14 males, 14 females) based on gender, BW, genetics, age, excitement level, frame size, and lean body mass. The dogs were out of a minimum of 10 different bitches and at least as many sires. Prior to the start of the study, the dogs were tested for lean mass, muscle damage, and antioxidant status as described in Example 1. In addition to the low carnitine basal diet, twenty-eight of the Labs received 250 mg/day of L-carnitine (batch D23013) and 3.75 g/d of sugar, while twenty-eight of the Labs received 4 g/d of sugar. Both the L-carnitine and control performance dogs were put through a weekly running program consisting of two evenly distributed endurance runs. Groups ranging between 6 and 10 dogs were run together, including both treatments in each group. The endurance runs increased incrementally by 0.5 miles per week (5 miles/session increasing to 10 miles per session over an 11 week period). The dogs were allowed a 1 day rest between runs and a 3 day rest before a scheduled exercise distance increase. The dogs were put through maintenance runs of 5 miles twice in the 12th week and then 2 miles twice in the 13th week. All dogs had at least 4 days of rest prior to the final 15 miles run in the 14th week. Each performance dog wore the Actical activity monitor and GPS tracking collar during the last 15 mile endurance run. The final run was conducted in a manner analogous to that of Example 1. All activity was accurately and precisely calculated using the GPS tracking monitors. Immediately following the 15 mile endurance run, each dog was placed in a kennel and evaluated for recovery time in body temperature (every 15 minutes for 2 hours) and heart rate (every 2 minutes for up to 20 minutes until basal beats per minute (BPM) was reached). Body temperature and heart rate were measured as described in Example 1.

[3] = system: Creatine kinase (CK); assay: Serum creatine kinase (muscle damage biomarker), Example 1; conditions: for Creatine Kinase, serum, Mean / Change in Creatine Kinase Activity, post-run minus pre-run: Ex.1, 250 mg/d; for Change in Creatine Kinase Activity, post-run minus pre-run: following 15 mile long run at 13 wk, mean ± SEM
Method: Blood Analysis: Serum samples were taken at three different times from each dog during the 90 day period. The blood samples were collected as follows: 1.) just prior to scanning each dog for body composition at the beginning of the study, 2.) prior to the long run on the 13th week, and 3.) following the long run on the 13th week. The serum samples were analyzed for Phosphocreatine Kinase and Canine Myoglobin to determine the amount of muscle protein leakage that occurred following the long run and TBARS and Total Antioxidant Capacity (TAC) were determined to evaluate the antioxidant status of each of the test dogs during the exercise program. The final blood sample was taken 24 hr after the long run to obtain maximum protein leakage based on previous similar types of exercise research with human athletes. Biomarkers and Assay Methods: Blood was drawn from each dog using a serum separator tube at three different times during the 90 day period: 1.) just prior to scanning each dog for body composition at the beginning of the study, 2.) prior to the long run on the 13th week, and 3.) following the long run on the 13th week. The final blood sample was taken 24 hr after the long run to obtain maximum protein leakage based on previous similar types of exercise research with human athletes. Each time after the blood was drawn it was allowed to clot before being centrifuged for 15 min at 2000 g at 4° C. Serum was aliquoted into 1.5 mL microcentrifuge tubes and stored at −80° C. until assays were ran following the end of the study. Creatine kinase (CK) and canine myoglobin were measured to determine the amount of muscle protein leakage that occurred following the long run. Thiobarbituric acid reactive substances (TBARS) and total antioxidant capacity (TAC) were measured to evaluate the antioxidant status of each of the test dogs during the exercise program. Serum samples were analyzed for total antioxidant capacity (TAC) and thiobarbituric acid reactive substances (TBARS) using commercially available colorimetric kits supplied by Cayman Chemical Company (Ann Arbor, Mich.) per manufacturer instructions. Serum canine myoglobin levels were determined using a commercially available ELISA supplied by Innovate Research (Novi, Mich.) per manufacturer instructions. Creatine kinase activity was determined colorimetrically using a commercially available kit supplied by BioVision (San Francisco, Calif.).

C[N+](C)(C)C[C@H](O)CC(=O)[O-] [L-carnitine]
Lameness or soreness after long runs (score 1-5) [1]: no noticeable effects
Final Run Time ([2]; Female): 73.7 ± 0.86 min
Final Run Time ([2]; Male): 76.11 ± 1.64 min
Final Run Time ([2]; both sexes): 74.90 min and 74.9 ± 0.94 min
Creatine Kinase Least Sq Mean ([3]; Baseline): 24.88 mU/mL
Creatine Kinase Least Sq Mean ([3]; Baseline, F): 35.85 mU/mL
Creatine Kinase Least Sq Mean ([3]; Baseline, M): 13.91 mU/mL
Creatine Kinase, serum, Mean ([3]; Baseline, both sexes): 22.9 mU · mL
Creatine Kinase, serum, Mean ([3]; Baseline, females): 35.8 mU · mL
Creatine Kinase, serum, Mean ([3]; Baseline, males): 13.9 mU · mL
Creatine Kinase, serum, Mean ([3]; Post-run (24 hr after 15 mile run), both sexes): 16.1 mU · mL
Creatine Kinase, serum, Mean ([3]; Post-run, females): 19.9 mU · mL
Creatine Kinase, serum, Mean ([3]; Post-run, males): 12.2 mU · mL
Creatine Kinase, serum, Mean ([3]; Pre-run (24 hr before 15 mile run), both sexes): 7.0 mU · mL
Creatine Kinase, serum, Mean ([3]; Pre-run, females): 6.9 mU · mL
Creatine Kinase, serum, Mean ([3]; Pre-run, males): 7.0 mU · mL
Change in Creatine Kinase Activity, post-run minus pre-run ([3]; both sexes, text: units): 9.3 and 9.3 ± 1.86 n = 18
Change in Creatine Kinase Activity, post-run minus pre-run ([3]; females): 13.06 ± 2.06 n = 9
Change in Creatine Kinase Activity, post-run minus pre-run ([3]; males): 5.54 and 5.54 ± 2.63 n = 9
Creatine Kinase Least Sq Mean ([3]; Post-run): 16.08 mU/mL
Creatine Kinase Least Sq Mean ([3]; Post-run, F): 19.94 mU/mL
Creatine Kinase Least Sq Mean ([3]; Post-run, M): 12.21 mU/mL
Creatine Kinase Least Sq Mean ([3]; Pre-run): 6.96 mU/mL
Creatine Kinase Least Sq Mean ([3]; Pre-run, F): 6.888 mU/mL
Creatine Kinase Least Sq Mean ([3]; Pre-run, M): 7.032 mU/mL
Creatine Kinase Least Sq Mean ([3]; Treatment * Sex, F): 35.85 mU/mL
Creatine Kinase Least Sq Mean ([3]; Treatment * Sex, M): 13.91 mU/mL
Creatine Kinase Least Sq Mean ([3]; Treatment level, all dogs): 24.88 mU/mL
Creatine Kinase, mixed model Estimate, term Time[Post-run-Pre-run] * Treatment[L-carnitine] ([3]; serum, model term): −2.544 mU/mL
Creatine Kinase, mixed model Estimate, term Time[Post-run-Pre-run] * Treatment[L-carnitine] * Sex[F] ([3]; serum, model term): 1.335 mU/mL
Creatine Kinase, mixed model Estimate, term Time[Pre-run-Baseline] * Treatment[L-carnitine] ([3]; serum, model term): −3.029 mU/mL
Creatine Kinase, mixed model Estimate, term Time[Pre-run-Baseline] * Treatment[L-carnitine] * Sex[F] ([3]; serum, model term): −5.661 mU/mL
Creatine Kinase, mixed model Estimate, term Treatment[L-carnitine] ([3]; serum, model term): 3.121 mU/mL
Creatine Kinase, mixed model Estimate, term Treatment[L-carnitine] * Sex[F] ([3]; serum, model term): 5.935 mU/mL
